Results taken from patent US9371294B2, “Cycloalkenyl aryl derivatives for CETP inhibitor” (CHONG KUN DANG PHARMACEUTICAL CORP., priority 2011, dated 2016).

The molecules below were run against T1, cholesteryl ester transfer protein (Homo sapiens, UniProt P11597) (assay: In vitro test for the ability to inhibit cholesteryl ester transfer). Conditions: [3H]-cholesteryl oleate transfer from rHDL-agarose to LDL; human plasma as CETP source; 37° C.; 16-10000 nM, duplicate.
T1 construct: As a source of cholesteryl ester transfer protein, plasma from healthy humans was used; from tissue; host or cells: plasma from healthy humans
T1 sequence (P11597 18-493): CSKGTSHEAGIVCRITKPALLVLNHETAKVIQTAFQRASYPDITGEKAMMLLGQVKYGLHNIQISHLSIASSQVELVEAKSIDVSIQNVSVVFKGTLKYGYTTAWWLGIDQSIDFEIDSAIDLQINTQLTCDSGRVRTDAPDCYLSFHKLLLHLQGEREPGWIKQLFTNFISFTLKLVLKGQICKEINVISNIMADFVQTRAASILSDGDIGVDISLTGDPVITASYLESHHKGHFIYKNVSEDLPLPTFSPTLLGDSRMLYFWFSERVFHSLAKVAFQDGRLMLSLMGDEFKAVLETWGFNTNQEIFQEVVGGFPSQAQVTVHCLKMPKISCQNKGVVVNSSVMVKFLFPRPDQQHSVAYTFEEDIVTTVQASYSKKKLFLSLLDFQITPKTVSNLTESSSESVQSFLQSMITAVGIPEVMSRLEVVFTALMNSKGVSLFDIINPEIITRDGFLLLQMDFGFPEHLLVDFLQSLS
Format: biochemical
Description: In Vitro Test for the Ability to Inhibit Cholesteryl Ester Transfer
1. Preparation of Cholesteryl Ester Donor
In order to prepare a cholesteryl ester donor to be used in the test, a radiolabeled recombinant HDL containing [^3H]-cholesteryl oleate (GE healthcare, TRK886, 3.5 μCi/mg of apoA-1) and apoA-1 was synthesized. Then, rHDL-agarose obtained by immobilizing the recombinant HDL with CNBr-activated Sepharose 4B resin (Amersham Biosciences, Sweden) was used in the test.
2. Cholesteryl Ester Transfer Test
As a source of cholesteryl ester transfer protein, plasma from healthy humans was used, and as cholesteryl ester receptor, LDL from healthy humans was used. Each of test compounds was added to be final concentrations of 16, 80, 400, 2000 and 10000 nM and tested in duplicate. In order to test cholesteryl ester transfer, 20 μl of plasma, 50 μl of LDL (0.25 mg/ml) and 50 μl of rHDL-agarose (0.25 mg/ml) were mixed with each other, and a solution of each test compound was added thereto and reacted thereto at 37° C. Then, the reaction solution was centrifuged at 4° C. for 3 minutes, thereby the reaction was stopped. 150 μl of the supernatant was transferred into a 96-well plate for radioactivity measurement, and the radioactivity thereof was measured with a beta-ray detector.
3. Statistical Processing
The ratio of [^3H]-cholesteryl oleate transferred from HDL to LDL was determined, and based on the determined ratio, the IC50 value of each compound was determined using GraphPad Prism 5.0.

| Compound | IC50 [nM] |
| --- | --- |
| COc1ccc(C(F)(F)F)cc1C1=C(CN2C(=O)O[C@H](c3cc(C(F)(F)F)cc(C(F)(F)F)c3)[C@@H]2C)CC(C(F)(F)F)CC1 (stereo partly drawn) [Compound 193, (4S,5R)-5-(3,5-bis(trifluoromethyl)phenyl)-3-((2-(2-methoxy-5-(trifluoromethyl)phenyl)-5-(trifluoromethyl)cyclohex-1-enyl)methyl)-4-methyloxazolidin-2-one] | 40 |
| COc1ccc(-c2nnn(C)n2)cc1C1=C(CN2C(=O)O[C@H](c3cc(C(F)(F)F)cc(C(F)(F)F)c3)[C@@H]2C)CC(C)(C)CC1 [Compound 338, (4S,5R)-5-(3,5-bis(trifluoromethyl)phenyl)-3-((2-(2-methoxy-5-(2-methyl-2H-tetrazol-5-yl)phenyl)-5,5-dimethylcyclohex-1-enyl)methyl)-4-methyloxazolidin-2-one] | 35 |
| COc1cc2c(cc1C1=C(CN3C(=O)O[C@H](c4cc(C(F)(F)F)cc(C(F)(F)F)c4)[C@@H]3C)CC(C)(C)CC1)OCO2 [Compound 223, (4S,5R)-5-(3,5-bis(trifluoromethyl)phenyl)-3-((2-(6-methoxybenzo[d][1,3]dioxol-5-yl)-5,5-dimethylcyclohex-1-enyl)methyl)-4-methyloxazolidin-2-one] | 100 |
| COc1cc(F)c(OCC(F)(F)F)cc1C1=C(CN2C(=O)O[C@H](c3cc(C(F)(F)F)cc(C(F)(F)F)c3)[C@@H]2C)CC(C)(C)CC1 [Compound 222, (4S,5R)-5-(3,5-bis(trifluoromethyl)phenyl)-3-((2-(4-fluoro-2-methoxy-5-(2,2,2-trifluoroethoxy)phenyl)-5,5-dimethylcyclohex-1-enyl)methyl)-4-methyloxazolidin-2-one] | 40 |
| COc1ccc(CC(C)(C)c2nn[nH]n2)cc1C1=C(CN2C(=O)O[C@H](c3cc(C(F)(F)F)cc(C(F)(F)F)c3)[C@@H]2C)CC(C)(C)CC1 [Compound 340, (4S,5R)-5-(3,5-bis(trifluoromethyl)phenyl)-3-((2-(2-methoxy-5-(2-methyl-2-(2H-tetrazol-5-yl)propyl)phenyl)-5,5-dimethylcyclohex-1-enyl)methyl)-4-methyloxazolidin-2-one] | 8 |
| COc1cc(F)c(C2CC2)cc1C1=C(CN2C(=O)O[C@H](c3cc(C(F)(F)F)cc(C(F)(F)F)c3)[C@@H]2C)CC(C)(C)CC1 [Compound 237, (4S,5R)-5-(3,5-bis(trifluoromethyl)phenyl)-3-((2-(5-cyclopropyl-4-fluoro-2-methoxyphenyl)-5,5-dimethylcyclohex-1-enyl)methyl)-4-methyloxazolidin-2-one] | 9 |
| COc1ccc(N(C)C(=O)CC(F)(F)F)cc1C1=C(CN2C(=O)O[C@H](c3cc(C(F)(F)F)cc(C(F)(F)F)c3)[C@@H]2C)CC(C)(C)CC1 [Compound 130, N-(3-(2-(((4S,5R)-5-(3,5-bis(trifluoromethyl)phenyl)-4-methyl-2-oxooxazolidin-3-yl)methyl)-4,4-dimethylcyclohex-1-enyl)-4-methoxyphenyl)-3,3,3-trifluoro-N-methylpropanamide] | 20 |
| COc1ccc(C2(C#N)CC2)cc1C1=C(CN2C(=O)O[C@H](c3cc(C(F)(F)F)cc(C(F)(F)F)c3)[C@@H]2C)CC(C)(C)CC1 [Compound 189, 1-(3-(2-(((4S,5R)-5-(3,5-bis(trifluoromethyl)phenyl)-4-methyl-2-oxooxazolidin-3-yl)methyl)-4,4-dimethylcyclohex-1-enyl)-4-methoxyphenyl)cyclopropanecarbonitrile] | 20 |
| COc1ccc(CC2(C(=O)O)CCC2)cc1C1=C(CN2C(=O)O[C@H](c3cc(C(F)(F)F)cc(C(F)(F)F)c3)[C@@H]2C)CC(C)(C)CC1 [Compound 313, 1-(3-(2-(((4S,5R)-5-(3,5-bis(trifluoromethyl)phenyl)-4-methyl-2-oxooxazolidin-3-yl)methyl)-4,4-dimethylcyclohex-1-enyl)-4-methoxybenzyl)cyclobutanecarboxylic acid] | 20 |
| COc1ccc(OC(F)(F)F)cc1C1=C(CN2C(=O)O[C@H](c3cc(C(F)(F)F)cc(C(F)(F)F)c3)[C@@H]2C)CC(C)(C)CC1 [Compound 117, (4S,5R)-5-(3,5-bis(trifluoromethyl)phenyl)-3-((2-(2-methoxy-5-(trifluoromethoxy)phenyl)-5,5-dimethylcyclohex-1-enyl)methyl)-4-methyloxazolidin-2-one] | 80 |
| COc1cc(F)c(C(C)C)cc1C1=C(CN2C(=O)O[C@H](c3cc(C(F)(F)F)cc(C(F)(F)F)c3)[C@@H]2C)CC(F)(F)CC1 [Compound 123, (4S,5R)-5-(3,5-bis(trifluoromethyl)phenyl)-3-((5,5-difluoro-2-(4-fluoro-5-isopropyl-2-methoxyphenyl)cyclohex-1-enyl)methyl)-4-methyloxazolidin-2-one] | 20 |
| COc1ccc(CC2(C(=O)O)CCCC2)cc1C1=C(CN2C(=O)O[C@H](c3cc(C(F)(F)F)cc(C(F)(F)F)c3)[C@@H]2C)CC(C)(C)CC1 [Compound 324, 1-(3-(2-(((4S,5R)-5-(3,5-bis(trifluoromethyl)phenyl)-4-methyl-2-oxooxazolidin-3-yl)methyl)-4,4-dimethylcyclohex-1-enyl)-4-methoxybenzyl)cyclopentanecarboxylic acid] | 97 |
| CCc1cc(OC)c(C2=C(CN3C(=O)O[C@H](c4cc(C(F)(F)F)cc(C(F)(F)F)c4)[C@@H]3C)CC(C)(C)CC2)cc1N(C)C(C)=O [Compound 234, N-(5-(2-(((4S,5R)-5-(3,5-bis(trifluoromethyl)phenyl)-4-methyl-2-oxooxazolidin-3-yl)methyl)-4,4-dimethylcyclohex-1-enyl)-2-ethyl-4-methoxyphenyl)-N-methylacetamide] | 20 |
| COc1cc(F)c(C(C)=O)cc1C1=C(CN2C(=O)O[C@H](c3cc(C(F)(F)F)cc(C(F)(F)F)c3)[C@@H]2C)CC(C)(C)CC1 [Compound 184, (4S,5R)-3-((2-(5-acetyl-4-fluoro-2-methoxyphenyl)-5,5-dimethylcyclohex-1-enyl)methyl)-5-(3,5-bis(trifluoromethyl)phenyl)-4-methyloxazolidin-2-one] | 20 |
| COc1ccc(C(C)O)cc1C1=C(CN2C(=O)O[C@H](c3cc(C(F)(F)F)cc(C(F)(F)F)c3)[C@@H]2C)CC(C)(C)CC1 (stereo partly drawn) [Compound 103, (4S,5R)-5-(3,5-bis(trifluoromethyl)phenyl)-3-((2-(5-(1-hydroxyethyl)-2-methoxyphenyl)-5,5-dimethylcyclohex-1-enyl)methyl)-4-methyloxazolidin-2-one] | 30 |
| COc1ccc(N(C)C(=O)C(C)(C)O)cc1C1=C(CN2C(=O)O[C@H](c3cc(C(F)(F)F)cc(C(F)(F)F)c3)[C@@H]2C)CC(C)(C)CC1 [Compound 244, N-(3-(2-(((4S,5R)-5-(3,5-bis(trifluoromethyl)phenyl)-4-methyl-2-oxooxazolidin-3-yl)methyl)-4,4-dimethylcyclohex-1-enyl)-4-methoxyphenyl)-2-hydroxy-N,2-dimethylpropanamide] | 20 |
| COc1cc(F)c(C(C)C)cc1C1=C(CN2C(=O)O[C@H](c3cc(C(F)(F)F)cc(C(F)(F)F)c3)[C@@H]2C)CN(C)CC1 [Compound 231, (4S,5R)-5-(3,5-bis(trifluoromethyl)phenyl)-3-((4-(4-fluoro-5-isopropyl-2-methoxyphenyl)-1-methyl-1,2,5,6-tetrahydropyridin-3-yl)methyl)-4-methyloxazolidin-2-one] | 700 |
| COc1ccc(N(C)S(C)(=O)=O)cc1C1=C(CN2C(=O)O[C@H](c3cc(C(F)(F)F)cc(C(F)(F)F)c3)[C@@H]2C)CC(C)(C)CC1 [Compound 128, N-(3-(2-(((4S,5R)-5-(3,5-bis(trifluoromethyl)phenyl)-4-methyl-2-oxooxazolidin-3-yl)methyl)-4,4-dimethylcyclohex-1-enyl)-4-methoxyphenyl)-N-methylmethanesulfonamide] | 60 |
| COc1ccc(C2=NCCO2)cc1C1=C(CN2C(=O)O[C@H](c3cc(C(F)(F)F)cc(C(F)(F)F)c3)[C@@H]2C)CC(C)(C)CC1 [Compound 185, (4S,5R)-5-(3,5-bis(trifluoromethyl)phenyl)-3-((2-(5-(4,5-dihydrooxazol-2-yl)-2-methoxyphenyl)-5,5-dimethylcyclohex-1-enyl)methyl)-4-methyloxazolidin-2-one] | 180 |
